The record followed here is patent US4532240A, “Diaminopyrimidines” (Warner-Lambert Company, priority 1983, dated 1985).

One experiment deals with B. catarrhalis. Put plainly: Antibacterial disk zone of inhibition, B. catarrhalis. In kind it is cell-based, Branhamella catarrhalis 03596. Particulars: Moraxella catarrhalis, read-out: Inhibition Zone diameter; for zone of inhibition at 100 µg/mL: 0.1 mg/ml; for zone of inhibition at 500 µg/mL: 0.5 mg/ml; for zone of inhibition at 10 µg/mL: 0.01 mg/ml. On the procedure:
(§1) Vegetative bacterial isolates are maintained on agar slants or in liquid media, hereby designated as inoculum media. The cultures are transferred at regular intervals in such media. (See Table IV for the corresponding inoculum media of each culture.) The organisms are generally transferred either onto agar slants or into liquid inoculum media and incubated at 37° C. (at 28° C. with Xanthomonas sp.) overnight (18-20 hours).
(§2) The microbial cells from the overnight agar slants are then scraped off and suspended in saline solution (0.85% NaCl). The microbial concentrations are adjusted to a light transmission of 8.6% using a PerkinElmer Model 35 spectrophotometer (550 nm). For the organisms that are maintained in liquid media, one of two procedures is followed: (1) the culture suspension is first centrifuged at 5000 rpm for five minutes. The pellet is resuspended in 0.85% saline to 8.6% light transmittancy; (2) an aliquot of the culture suspension is to be added directly to the assay medium.
(§3) A given molten-agar assay medium, maintained in a flask at approximately 45° C., is inoculated with 0.16-10 ml of an appropriate cell or spore suspension per 100 ml of medium. Fifty ml of the inoculated medium is poured into a Bio-Assay dish (A/S Nunc; Gibco Laboratories Catalog Number 240835) and spread evenly across the bottom, then allowed to solidify at room temperature. Each agar dish is inverted and refrigerated until used.
(§4) The compounds or samples to be tested are dissolved in suitable solvents, e.g., alcohols, dimethylsulfoxide, or N,N-dimethylformamide. The samples are generally dissolved so that the final concentration of the solvent is <10%.* The compounds are tested at different concentrations: 3,000; 1,000; 500; 100; and 10 mcg/ml. Paper discs (12.7 mm diameter) saturated with a given concentration of test compound are placed onto the seeded agar dishes with a pair of forceps.
(§5) The disked agar dishes are incubated at 37° C. (28° C. for Xanthamonas sp.) for 18-20 hours. Active compounds show a zone of inhibition around the disc. The diameter of the zone is measured in mm. The zone diameter of active compounds ranges from a minimum of 13.5 mm to as high as 60 mm. The size of the zone diameter generally reflects the activity of the compound: the larger the zone the greater the activity.

A further experiment concerns S. lutea. Put plainly: Antibacterial disk zone of inhibition, S. lutea (as headed). In kind it is cell-based, Micrococcus luteus 05064. As to conditions: Micrococcus luteus, read-out: Inhibition Zone diameter; for zone of inhibition at 3000 µg/mL: 3.0 mg/ml; for zone of inhibition at 10 µg/mL: 0.01 mg/ml; for zone of inhibition at 100 µg/mL: 0.1 mg/ml. On the procedure:
as §1, §2, §3, §4, §5

For the next experiment, the system named is X. phaseoli. Description: Antibacterial disk zone of inhibition, X. phaseoli. In kind it is cell-based, Xanthomonas phascoli 06002. As to conditions: Xanthomonas; 3.0 mg/ml; read-out: Inhibition Zone diameter. On the procedure: as §1, §2, §3, §4, §5
In the next experiment the test system is B. subtilis. Put plainly: Antibacterial disk zone of inhibition, B. subtilis. As to conditions: Bacillus subtilis, read-out: Inhibition Zone diameter; for zone of inhibition at 3000 µg/mL: 3.0 mg/ml; for zone of inhibition at 100 µg/mL: 0.1 mg/ml; for zone of inhibition at 10 µg/mL: 0.01 mg/ml. In kind it is cell-based, Bacillus subtilis 04555. On the procedure:
as §1, §2
Isolate spore suspensions (Bacillus sp.) are maintained at 4° C. These suspensions serve as the inoculum media for assays.
as §3, §4, §5

The test system of experiment [1] is HCT-8 (human colon adenocarcinoma) cells. Put plainly: In vitro activity against HCT-8 human colon adenocarcinoma cells. In kind it is cell-based. As to conditions: HCT-8, 60-65 hours with compound, 37° C., read-out: ID50 against human colon adenocarcinoma. The procedure:
HCT-8 (human colon adenocarcinoma) cells are trypsinized using Trypsin-EDTA. A single cell suspension is achieved by passing the cells through a 26 gauge needle with a 20 cc syringe. A cell suspension is prepared using RPMI 1640+10% FCS+50 μg/ml garamycin with a cell concentration of approximately 30,000 cells/ml. The cell suspension is dispensed in Linbro 24-well plates; 1 ml/well. The plates are incubated for approximately 48 hours at 37° C. in a 5% CO2 atmosphere. At this time test compounds are added in the appropriate concentration. Five μl of the 200 μg/ml stock solution is added to each well in a primary test. Ten μl of the appropriate dilution is added to each well for a titration test. The plates are reincubated an additional 60-65 hours at 37° C. in a 5% CO2 atmosphere. The test is read by lysing the cells using a mix of cationic surfactant, glacial acetic acid and sodium chloride. […] of the lysed cell suspension from each well is added to 8 ml of diluent. Each sample is read on the Coulter counter (ZBI model). The activity of each sample is measured as a percentage of the controls and the data is reported as ID50, that is the molar quantity of drug required to kill 50% of the tumor cells.

The test system of another experiment is L1210 cells. Put plainly: In vitro antitumor screening on L1210 murine leukemia cell line (growth, Coulter counter). Particulars: Mus musculus, L1210, 72 h; three days, 37° C., 5% CO2; read-out: L1210 Leukemia in vitro ID50. In kind it is cell-based. On the procedure:
L1210 cells, a murine leukemia cell line, were grown in RPMI 1640 supplemented with 5% fetal bovine serum and gentamicin (50 μg/ml).
Drug dilutions were prepared in the appropriate solvent and 20 μl of each dilution were added to 24-well Linbro tissue culture plates, followed by the addition of M 2.0 ml of cell suspension containing 3×10^4cells per ml. Solvent and medium controls were included in each test. After incubation at 37° C. for three days in 5% CO2, the contents of each well were removed and the cells counted in a ZBI Coulter counter. Percent growth was calculated relative to the controls and the levels of drug activity were expressed as ID50 in moles per liter using probit paper.

The subject of another experiment is M. faecalis. Put plainly: Antibacterial disk zone of inhibition, M. faecalis (as headed). Particulars: Enterococcus faecalis, read-out: Inhibition Zone diameter; for zone of inhibition at 100 µg/mL: 0.1 mg/ml; for zone of inhibition at 10 µg/mL: 0.01 mg/ml. In kind it is cell-based, Streptococcus faecalis 05045. On the procedure: as §1, §2, §3, §4, §5
The next experiment relates to P388 Leukemia. Put plainly: In vivo lymphocytic leukemia P388 test in mice. On the set-up: species or system CD2 F1 mice. As to conditions: intraperitoneal, two single doses four days apart. On the procedure:
The in vivo lymphocytic leukemia P388 test is carried out using the test system of the United States National Cancer Institute. The animals used are either male or female CD2 F1 mice. There are six to seven animals per test group. The tumor transplant is by intraperitoneal injection of dilute ascitic fluid containing cells of lymphocytic leukemia P388. The test compounds are administered intraperitoneally in two single doses with a four-day interval between doses at various dose levels following tumor inoculation. The animals are weighed and survivors are recorded on a regular basis for 30 days. A ratio of survival time for treated (T)/control (C) animals is calculated. The criterion for efficacy is T/C×100>125%. The positive control compound in this test is 5-fluorouracil. See Cancer Chemotherapy Reports, Part 3, 3, 1 (1972) for a comprehensive discussion of the protocol.

Consider `Cc1nc(N)nc(N)c1N1CCN(c2ccc(C#N)cc2)CC1` [Example 19, 5-[4-(4-cyanophenyl)-1-piperazinyl]-6-methyl-2,4-pyrimidinediamine], for which the zone of inhibition at 3000 µg/mL with B. catarrhalis (3.0 mg/ml), in the experiment with S. lutea, in the experiment on X. phaseoli and in the experiment with B. subtilis was 0 mm throughout. Moreover, the results for the IC50 (in experiment [1]; in the experiment with L1210 cells) were above 1000 nM and 1500 nM, respectively. The zone of inhibition at 100 µg/mL in the experiment with M. faecalis was determined as 15 mm.
`CC(=O)c1ccc(N2CCN(c3c(C)nc(N)nc3N)CC2)cc1` [Example 5, 5-[4-(4-acetylphenyl)-1-piperazinyl]-6-methyl-2,4-pyrimidinediamine, hydrate (100:18)]: the zone of inhibition at 100 µg/mL in the experiment with B. catarrhalis was found to be 24 mm; with B. subtilis, 23 mm; in the experiment with M. faecalis it was 16 mm. Besides, in the experiment with S. lutea, the zone of inhibition at 10 µg/mL worked out at 14 mm. In addition, in the experiment on X. phaseoli, the zone of inhibition at 3000 µg/mL stood at 0 mm. In addition, the “T/C × 100” value came to 123% in the experiment on P388 Leukemia (6.25 mg/kg), 144% in the experiment on P388 Leukemia (12.5 mg/kg), 181% in the experiment with P388 Leukemia (25 mg/kg) and 250% in the experiment on P388 Leukemia (50 mg/kg). The IC50 in experiment [1] came out at 510 nM; in the experiment with L1210 cells, 5 nM.
As to `CCCc1nc(N)nc(N)c1N1CCN(c2ccc(C(=O)O)cc2)CC1` [Example 15, 4-[4-(2,4-Diamino-6-propyl-5-pyrimidinyl)-1-piperazinyl]benzoic acid], the zone of inhibition at 500 µg/mL in the experiment on B. catarrhalis amounted to 19 mm. Moreover, in the experiment on S. lutea, the zone of inhibition at 100 µg/mL is 16 mm. Besides, the zone of inhibition at 3000 µg/mL in the experiment with X. phaseoli and in the experiment on B. subtilis was 0 mm throughout. The IC50 in experiment [1] was found to be 280 nM; in the experiment with L1210 cells, 43 nM. Further, the zone of inhibition at 10 µg/mL in the experiment on M. faecalis came out at 15 mm.
On to `CCc1nc(N)nc(N)c1N1CCN(c2ccc(C(=O)O)cc2)CC1` [Example 11, 4-[4-(2,4-Diamino-6-ethyl-5-pyrimidinyl)-1-piperazinyl]benzoic acid], for which the zone of inhibition at 500 µg/mL in the experiment with B. catarrhalis came to 27 mm. Besides, the zone of inhibition at 10 µg/mL came out at 16 mm in the experiment with S. lutea and 19 mm in the experiment on M. faecalis. Moreover, in the experiment with X. phaseoli, the zone of inhibition at 3000 µg/mL stood at 0 mm. In the experiment on B. subtilis, the zone of inhibition at 100 µg/mL worked out at 18 mm. For the same compound, the IC50 in experiment [1] is 570 nM; in the experiment on L1210 cells, 10 nM.
In the case of `CCc1nc(N)nc(N)c1N1CCN(c2ccc(C(=O)NC(CCC(=O)O)C(=O)O)cc2)CC1` (stereo not shown) [drawing 23], the zone of inhibition at 10 µg/mL in the experiment on B. catarrhalis turned out to be 14 mm. The zone of inhibition at 500 µg/mL in the experiment with S. lutea (0.5 mg/ml) turned out to be 14 mm. In addition, the zone of inhibition at 3000 µg/mL with X. phaseoli is 15 mm. In addition, the zone of inhibition at 100 µg/mL was 20 mm with B. subtilis and 14 mm with M. faecalis.
For `CCOC(=O)CCC(NC(=O)c1ccc(N2CCN(c3c(N)nc(N)nc3CC)CC2)cc1)C(=O)OCC` (stereo not shown) [drawing 22], the zone of inhibition at 10 µg/mL in the experiment on B. catarrhalis was found to be 20 mm; with S. lutea, 19 mm; in the experiment with M. faecalis, 15 mm. Besides, the zone of inhibition at 3000 µg/mL in the experiment on X. phaseoli worked out at 3 mm. Besides, in the experiment on B. subtilis, the zone of inhibition at 100 µg/mL was 19 mm.
As to `Cc1nc(N)nc(N)c1N1CCN(c2ccc(C(=O)N[C@@H](CCC(=O)O)C(=O)O)cc2)CC1` [drawing 21], the zone of inhibition at 10 µg/mL came out at 25 mm with B. catarrhalis and 22 mm with B. subtilis. Moreover, the zone of inhibition at 3000 µg/mL in the experiment on S. lutea, in the experiment with X. phaseoli and in the experiment with M. faecalis (3.0 mg/ml) was 0 mm in each case.
As for `Cc1nc(N)nc(N)c1N1CCN(c2ccc(S(C)(=O)=O)cc2)CC1` [Example 9, 6-Methyl-5-[4-[4-(methylsulfonyl)phenyl]-1-piperazinyl]-2,4-pyrimidinediamine, hydrate (10:2)], the zone of inhibition at 500 µg/mL with B. catarrhalis is 14 mm. Also, the zone of inhibition at 3000 µg/mL in the experiment on S. lutea and in the experiment with X. phaseoli was 0 mm in each case. Besides, the zone of inhibition at 10 µg/mL with B. subtilis stood at 29 mm; in the experiment on M. faecalis, 18 mm. For the same compound, the “T/C × 100” value in the experiment with P388 Leukemia (6.25 mg/kg) is 128%; in the experiment on P388 Leukemia (12.5 mg/kg) it was 131%; with P388 Leukemia (25 mg/kg) it was 140%; with P388 Leukemia (50 mg/kg), 198%. In addition, the IC50 in experiment [1] was found to be 61 nM; in the experiment on L1210 cells, 5.6 nM.
For `CCCc1nc(N)nc(N)c1N1CCN(c2ccc(C(=O)OCC)cc2)CC1` [Example 18, 4-[4-(2,4-Diamino-6-propyl-5-pyrimidinyl)-1-piperazinyl]benzoic acid, ethyl ester], the zone of inhibition at 100 µg/mL stood at 15 mm with B. catarrhalis and 16 mm in the experiment on S. lutea. For the same compound, the zone of inhibition at 3000 µg/mL with X. phaseoli and with B. subtilis was 0 mm throughout. Moreover, the “T/C × 100” value with P388 Leukemia (25 mg/kg) was 120%; in the experiment with P388 Leukemia (50 mg/kg), 149%. The results for the IC50 (in experiment [1]; with L1210 cells) were 210 nM and 9.3 nM, respectively. Besides, the zone of inhibition at 10 µg/mL in the experiment with M. faecalis was 15 mm.
